In experiment [1] the test system is PLA2-GIB. The experiment is described as follows: PLA2-GIB enzymatic assay on [3H] arachidonic acid labelled Jurkat E6.1 T cells. The format is cell-based, human. To be noted: Jurkat E6.1 cells pretreated 21 h, 200 nM PLA2-GIB, FIG. 15. Here is the method: Jurkat E6.1 T cells (ECACC 88042803) or gC1qR KO Jurkat E6.1 T cells were incubated for 17 h at 5×10^5 cells/ml with 1 μCi/ml of arachidonic acid [5,6,8,9,11,14,15-^3H(N)] (Perkin Elmer, NET298Z250UC) in RPMI 1640 medium (Lonza) supplemented with 10% FBS, 50 mM HEPES pH 7.4, glutamine, penicillin, streptomycin and fungizone at 2 ml/well in 6-well plates at 37° C. in a 5% CO2 humidified atmosphere. Cells were washed twice with RPMI with 10% FBS by centrifugation at 300×g for 10 minutes at room temperature and then frozen in 90% FBS 10% DMSO at 10^7 cells/ml/vial at −80° C. Percent of [3H] arachidonic acid in CD4 T cells is the (1 minus ratio of [3H] arachidonic acid in the supernatant of CD4 T cells without cells (cpm/ml) on total [3H] arachidonic acid in supernatant and cells (cpm/ml).
To test PLA2-GIB activity on [3H] arachidonic acid labelled Jurkat E6.1 T lymphocytes, cells were unfrozen in 10% FBS RPMI preheated at 37° C. by centrifugation at 300×g for 10 minutes at room temperature, washed twice in 2.5% FBS RPMI, and equilibrated at 5×10^4 or 10^5 Jurkat E6.1 T cells/400 μl/well in 24-well polystyrene plates for 1 h30 at 37° C. in a 5% CO2 humidified atmosphere. Then HCV core solution or vehicle dilution in 2.5% FBS RPMI at 5.95 μM was mixed with an equal volume of a PLA2GIB solution at 630 nM or 2 μM 2.5% FBS RPMI and 100 μl were added per well at the same time for 2 h. For peptide treatments, cells were pretreated for 2 h, 4 h or 21 h, as indicated on figures, with 50 μl per well of peptide solutions at 110 μM or 55 μM in 2.5% FBS RPMI. Then 50 μl per well of PLA2-GIB at 630 nM or 2 μM 2.5% FBS RPMI or medium alone were added for 2 h. Cells and supernatant were collected in eppendorf tubes and centrifuged at 580×g for 10 minutes at room temperature. The [3H] arachidonic acid released in cell supernatant was quantified in 300 μl with 16 ml of Ultima gold (Perkin Elmer, 6013329) in low diffusion vials (Perkin Elmer, 6000477) on a counter (tri-Carb 2800 TR liquid scintillation analyzer, Perkin Elmer).

For a further experiment, the system named is pSTAT5 NT in CD4 T cells. The experiment is described as follows: PLA2-GIB bioassay on CD4 T cells: pSTAT5 nuclear translocation in response to IL-7, confocal microscopy. Conditions: for effect on pSTAT5 NT: FIG. 5B; for nuclear translocation of phosphoSTAT5 (pSTAT5 NT) induced by IL-7: buffer, FIG. 1A; for pSTAT5 NT in response to IL-7: FIG. 2. It counts as cell-based, human. The source says: Purification of Human CD4 T-lymphocytes—Venous blood was obtained from healthy volunteers through the EFS (Etablissement Français du Sang, Centre Necker-Cabanel, Paris). CD4 T-cells were purified from whole blood using RosetteSep Human CD4+ T cell Enrichment Cocktail (Stem Cell, 15062). This cocktail contains mouse and rat monoclonal antibodies purified from mouse ascites fluid or hybridoma culture supernatant, by affinity chromatography using protein A or Protein G sepharose. These antibodies are bound in bispecific tetrameric antibody complexes which are directed against cell surface antigens on human hematopoietic cells (CD8, CD16, CD19, CD36, CD56 CD66b, TCRγ/δ) and glycophorin A on red blood cells. The rosetteSep antibody cocktail crosslinks unwanted cells in human whole blood to multiple red blood cells, forming immunorosettes. This increases the density of unwanted cells, such that they pellet along with the free red blood cells when centrifuged over a buoyant density medium such as lymphocytes separation medium (Eurobio, CMSMSL01-01).
Whole blood was incubated with RosetteSep Human CD4+ T cell Enrichment Cocktail at 50 μl/ml for 20 minutes at room temperature under gentle shaking (100 rpm), diluted with an equal volume of PBS+2% foetal bovine serum (FBS) and mixed gently. The diluted samples were centrifuged 20 minutes at 1200×g on top of lymphocytes separation medium. The enriched cells were then collected from the density medium at plasma interface and washed twice with PBS+2% FBS. Cells were subsequently resuspended in RPMI 1640 medium (Lonza) supplemented with 5% FBS, 50 mM HEPES pH 7.4, glutamine, penicillin, streptomycin and fungizone (complete medium), counted with a Moxi Z mini automated cell counter (ORFLO, MXZ000). Cells suspension was adjusted at 7×10^6 cells/ml and equilibrated at least 2 h at 37° C. in a 5% CO2 humidified atmosphere.
The enriched CD4-T cell population was controlled by flow cytometry on a cytoflex (Beckman coulter). The quiescence of recovered CD4 T-cells was controlled by the low level of IL-2Rα (CD25).

The target of a further experiment is T1, gC1qR (Homo sapiens, UniProt Q07021).
T1 sequence (Q07021 74-282): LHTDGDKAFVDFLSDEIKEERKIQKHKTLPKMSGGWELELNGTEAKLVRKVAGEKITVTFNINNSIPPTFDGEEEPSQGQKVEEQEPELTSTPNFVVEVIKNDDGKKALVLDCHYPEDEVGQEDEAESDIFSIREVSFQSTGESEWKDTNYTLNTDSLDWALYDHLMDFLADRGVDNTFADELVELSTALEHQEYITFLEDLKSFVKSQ
Nature of the experiment: gC1qR-peptides binding assay (ELISA on microplates). To be noted: peptide coated, His-tag-gC1qR 0 to 3 μg/well, FIG. 12. On the procedure:
The unbound protein was removed; the wells washed 2× with TBST (20 mM Tris-HCl pH 7.5, 150 mM NaCl, and 0.05% Tween-20) and the unreacted sites blocked by incubation (30 min, room temp) with 300 μl of 3% BSA in TBST. After washing (2× with TBST), the microtiter plate bound peptides was incubated (2 h, room temp.) with different amount of His-tag-gC1qR ranging from 0 to 3 μg/well in triplicate. After washing (5 times with TBST), 100 μl of anti-His tag-HRP antibody (1:1000; 71840-3, Merck) in 3% BSA in TBST was added per well and incubated for 2 h at room temperature. Microplates wells were then washed (5 times with TBST) and 100 μl of TMB ELISA substrate standard solution (UP664781, Interchim) was added per well. Reaction was stopped with 100 μl per well of a H2SO4 solution at 0.16M and OD at 450 nm was measured on a microplate reader (Tecan Infinite M1000 Pro).
A scrambled peptide or a control peptide were used as control.
For orientation: ELISA stands for enzyme-linked immunosorbent assay.

Experiment [2] deals with PLA2-GIB. The experiment is described as follows: PLA2-GIB enzymatic assay on [3H] arachidonic acid labelled CD4 T cells. The format is cell-based, human. Conditions: SA protein A alone at 10, 25 and 50 μg/ml, FIG. 9A. Here is the method: PLA2-GIB enzymatic assay on [3H] arachidonic acid labelled CD4 T cells or Jurkat E6.1 T cells—Purified CD4 T-cells were incubated for 16 h at 2×10^6 cells/ml with 1 μCi/ml of arachidonic acid [5,6,8,9,11,14,15-^3H(N)] (Perkin Elmer, NET298Z250UC) in RPMI 1640 medium (Lonza) supplemented with 10% FBS, 50 mM HEPES pH 7.4, glutamine, penicillin, streptomycin and fungizone at 2 ml/well in 6-well plates at 37° C. in a 5% CO2 humidified atmosphere. Cells were washed twice with RPMI with 10% FBS by centrifugation at 580×g for 10 minutes at room temperature and then frozen in 90% FBS 10% DMSO at 10^7 cells/ml/vial at −80° C. […]
To test PLA2-GIB activity on [3H] arachidonic acid labelled CD4 T lymphocytes, cells were unfrozen in 10% FBS RPMI preheated at 37° C. by centrifugation at 580×g for 10 minutes at room temperature, washed twice in 2.5% FBS RPMI, and equilibrated at 2×10^5 CD4 T cells/400 μl/well in 24-well polystyrene plates for 1 h30 at 37° C. in a 5% CO2 humidified atmosphere. […] The [3H] arachidonic acid released in cell supernatant was quantified in 300 μl with 16 ml of Ultima gold (Perkin Elmer, 6013329) in low diffusion vials (Perkin Elmer, 6000477) on a counter (tri-Carb 2800 TR liquid scintillation analyzer, Perkin Elmer). […]

The target in experiment [3] is gC1qR at the surface of human CD4 T cells / Jurkat E6.1 T cells (human) (UniProt Q07021). Nature of the experiment: cell-based or functional assay.

“NH2-SGEGGWSNGSLVDIM-COOH (H-SGEGGWSNGSLVDIM-OH) [HP Pg]”: the “PLA2-GIB activity vs scrambled PEP3” value in the experiment with PLA2-GIB [1] is on record as “significantly increased”.
Regarding “NH2-PWNATWTQRTLDDIW—COOH (H-PWNATWTQRTLDDIW-OH) [CTL peptide, control peptide for PEP3]”, the “effect on pSTAT5 NT” value with pSTAT5 NT in CD4 T cells (peptide alone, without PLA2-GIB) is on record as “no effect”; with pSTAT5 NT in CD4 T cells (peptide with 5 nM of PLA2-GIB), “no effect”. Also, the “binding to gC1qR” value in the experiment with gC1qR was “essentially do not”.
As to “C1q: Complement component C1q from human serum (Sigma C1740), natural ligand of gC1qR”, the “inhibition of pSTAT5 NT” value with pSTAT5 NT in CD4 T cells (C1q alone (10 μg/ml), FIG. 6A) was determined as 40%.
With “NH2-WNWDSKILSDPAWNS—COOH (H-WNWDSKILSDPAWNS-OH) [Scrambled PEP3, scrambled version of PEP3 used as control]”, in the experiment with gC1qR, the “binding to gC1qR” value is given as “essentially do not”.
Take “SA protein A: Staphylococcus aureus protein A, Sigma P6031”: the “release of [3H] arachidonic acids by CD4 T cells” value with PLA2-GIB [2] is recorded as “slightly induces”.
Take “PLA2-GIB: Human group IB pancreatic phospholipase A2, recombinant, produced in E. coli or in CHO-S”: the “nuclear translocation of phosphoSTAT5 (pSTAT5 NT) induced by IL-7” value in the experiment with pSTAT5 NT in CD4 T cells (5 nM of PLA2-GIB alone) is “does not affect”; in the experiment with pSTAT5 NT in CD4 T cells (75 nM of PLA2-GIB alone), “significantly decreases”. The “pSTAT5 NT in response to IL-7” value in the experiment on pSTAT5 NT in CD4 T cells (5 nM of PLA2-GIB, compared with more than 92% without PLA2-GIB) is “biologically similar”; in the experiment with pSTAT5 NT in CD4 T cells (75 nM of PLA2-GIB), 50%; with pSTAT5 NT in CD4 T cells (250 nM of PLA2-GIB) it was 10%. The “inhibition of pSTAT5 NT” value with pSTAT5 NT in CD4 T cells (75 nM of PLA2-GIB alone, FIG. 4) is 49%; with pSTAT5 NT in CD4 T cells (250 nM of PLA2-GIB alone, FIG. 4), 79%.
In experiment [3], H-PWNASWSNKSLDDIW-OH [PEP3 peptide NH2-…-COOH] showed an inhibition of pSTAT5 NT in CD4 T cells, 0.025 ug/ml PEP3 with 5 nM PLA2-GIB of 18%; an inhibition of pSTAT5 NT in CD4 T cells, 0.5 ug/ml PEP3 with 5 nM PLA2-GIB of 55%; an inhibition of pSTAT5 NT in CD4 T cells, 2.5 ug/ml PEP3 with 5 nM PLA2-GIB of 51%.

Source of the values: patent US20200399392A1, “INHIBITORS OF PLA2-G1B COFACTORS FOR TREATING CANCER” (priority 2018, published 2020).
